Source: ChEMBL document CHEMBL4316588, “Design, Synthesis, and Biological Evaluation of Novel DNA Gyrase-Inhibiting Spiropyrimidinetriones as Potent Antibiotics for Treatment of Infections Caused by Multidrug-Resistant Gram-Positive Bacteria” (J Med Chem, 2019)
pIC50: −log10 of the molar value. ≈ marks a conversion by molar mass, not a printed value.

Legend:
Staphylococcus aureus [1] = experiment: Antibacterial activity against methicillin-resistant Staphylococcus aureus after 18 to 20 hrs by CLSI-protocol based broth microdilution method; format: functional
[2] = Elimination half life in CD1 mouse at 10 mg/kg, po by LC-MS/MS analysis; format: ADME, organism-based; details: in vivo, read-out: beta t1/2 (converted)
Staphylococcus aureus [3] = experiment: Antibacterial activity against methicillin-resistant Staphylococcus aureus infected in Kunming mouse treated with 50 mg/kg cytochrome P450 inhibitor ABT dosed subcutaneously at 0.5 and 4.0 hrs postinfection followed by and measured at 7 to 14 days post treatment by Bliss method; format: functional; details: sc
DNA gyrase = DNA gyrase (Staphylococcus aureus, UniProt P0A0K8+P20831)
Chain of DNA gyrase (P0A0K8 whole entry): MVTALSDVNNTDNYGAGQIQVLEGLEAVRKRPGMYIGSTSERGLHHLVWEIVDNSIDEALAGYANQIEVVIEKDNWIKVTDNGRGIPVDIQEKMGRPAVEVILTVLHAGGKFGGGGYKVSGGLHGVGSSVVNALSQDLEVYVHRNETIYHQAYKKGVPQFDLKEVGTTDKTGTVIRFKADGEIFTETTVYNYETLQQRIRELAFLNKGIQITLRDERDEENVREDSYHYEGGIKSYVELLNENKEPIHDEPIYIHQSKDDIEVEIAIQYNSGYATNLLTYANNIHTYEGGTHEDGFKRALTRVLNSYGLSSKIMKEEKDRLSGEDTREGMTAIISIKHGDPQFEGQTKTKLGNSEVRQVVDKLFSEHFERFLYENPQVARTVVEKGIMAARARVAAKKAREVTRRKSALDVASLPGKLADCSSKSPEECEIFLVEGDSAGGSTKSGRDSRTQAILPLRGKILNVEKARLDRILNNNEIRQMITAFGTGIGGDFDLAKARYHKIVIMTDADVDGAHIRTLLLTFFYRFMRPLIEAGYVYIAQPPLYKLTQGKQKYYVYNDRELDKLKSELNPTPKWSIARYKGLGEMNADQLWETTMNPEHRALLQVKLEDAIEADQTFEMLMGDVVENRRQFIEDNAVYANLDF
Chain of DNA gyrase (P20831 whole entry): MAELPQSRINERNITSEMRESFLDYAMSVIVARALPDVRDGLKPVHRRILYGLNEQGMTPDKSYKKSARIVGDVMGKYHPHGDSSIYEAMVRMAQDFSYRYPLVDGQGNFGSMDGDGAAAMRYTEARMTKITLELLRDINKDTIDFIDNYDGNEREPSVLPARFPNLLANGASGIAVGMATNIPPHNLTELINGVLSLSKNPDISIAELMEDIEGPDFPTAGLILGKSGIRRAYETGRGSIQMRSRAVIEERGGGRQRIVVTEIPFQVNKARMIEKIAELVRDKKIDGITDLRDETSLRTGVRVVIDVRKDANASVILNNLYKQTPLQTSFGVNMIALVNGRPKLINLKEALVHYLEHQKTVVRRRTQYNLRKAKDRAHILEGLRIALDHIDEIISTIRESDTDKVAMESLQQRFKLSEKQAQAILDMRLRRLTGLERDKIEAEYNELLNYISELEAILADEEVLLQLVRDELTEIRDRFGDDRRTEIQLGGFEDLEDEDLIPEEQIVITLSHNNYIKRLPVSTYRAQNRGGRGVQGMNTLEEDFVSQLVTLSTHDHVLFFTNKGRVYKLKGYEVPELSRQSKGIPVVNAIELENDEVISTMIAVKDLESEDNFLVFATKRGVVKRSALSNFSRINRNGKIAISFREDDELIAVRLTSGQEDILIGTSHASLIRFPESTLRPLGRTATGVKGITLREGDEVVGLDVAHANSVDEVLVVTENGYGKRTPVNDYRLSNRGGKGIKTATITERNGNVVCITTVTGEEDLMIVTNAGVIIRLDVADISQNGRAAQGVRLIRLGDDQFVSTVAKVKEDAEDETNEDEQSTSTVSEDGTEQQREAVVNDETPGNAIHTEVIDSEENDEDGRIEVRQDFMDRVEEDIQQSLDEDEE
Description: Inhibition of Staphylococcus aureus DNA gyrase supercoiling activity using relaxed pHOT-1 DNA as substrate after 60 mins by ethidium bromide-based gel electrophoresis

Neisseria gonorrhoeae = experiment: Antibacterial activity against Neisseria gonorrhoeae after 18 to 20 hrs by CLSI-protocol based agar microdilution method; format: functional
[4] = biological target: DNA topoisomerase 2-alpha (Homo sapiens, UniProt P11388); experiment: Inhibition of human topoisomerase-2alpha using catenated DNA as substrate after 30 mins by ethidium bromide-based gel electrophoresis
Chain of DNA topoisomerase 2-alpha (P11388 whole entry): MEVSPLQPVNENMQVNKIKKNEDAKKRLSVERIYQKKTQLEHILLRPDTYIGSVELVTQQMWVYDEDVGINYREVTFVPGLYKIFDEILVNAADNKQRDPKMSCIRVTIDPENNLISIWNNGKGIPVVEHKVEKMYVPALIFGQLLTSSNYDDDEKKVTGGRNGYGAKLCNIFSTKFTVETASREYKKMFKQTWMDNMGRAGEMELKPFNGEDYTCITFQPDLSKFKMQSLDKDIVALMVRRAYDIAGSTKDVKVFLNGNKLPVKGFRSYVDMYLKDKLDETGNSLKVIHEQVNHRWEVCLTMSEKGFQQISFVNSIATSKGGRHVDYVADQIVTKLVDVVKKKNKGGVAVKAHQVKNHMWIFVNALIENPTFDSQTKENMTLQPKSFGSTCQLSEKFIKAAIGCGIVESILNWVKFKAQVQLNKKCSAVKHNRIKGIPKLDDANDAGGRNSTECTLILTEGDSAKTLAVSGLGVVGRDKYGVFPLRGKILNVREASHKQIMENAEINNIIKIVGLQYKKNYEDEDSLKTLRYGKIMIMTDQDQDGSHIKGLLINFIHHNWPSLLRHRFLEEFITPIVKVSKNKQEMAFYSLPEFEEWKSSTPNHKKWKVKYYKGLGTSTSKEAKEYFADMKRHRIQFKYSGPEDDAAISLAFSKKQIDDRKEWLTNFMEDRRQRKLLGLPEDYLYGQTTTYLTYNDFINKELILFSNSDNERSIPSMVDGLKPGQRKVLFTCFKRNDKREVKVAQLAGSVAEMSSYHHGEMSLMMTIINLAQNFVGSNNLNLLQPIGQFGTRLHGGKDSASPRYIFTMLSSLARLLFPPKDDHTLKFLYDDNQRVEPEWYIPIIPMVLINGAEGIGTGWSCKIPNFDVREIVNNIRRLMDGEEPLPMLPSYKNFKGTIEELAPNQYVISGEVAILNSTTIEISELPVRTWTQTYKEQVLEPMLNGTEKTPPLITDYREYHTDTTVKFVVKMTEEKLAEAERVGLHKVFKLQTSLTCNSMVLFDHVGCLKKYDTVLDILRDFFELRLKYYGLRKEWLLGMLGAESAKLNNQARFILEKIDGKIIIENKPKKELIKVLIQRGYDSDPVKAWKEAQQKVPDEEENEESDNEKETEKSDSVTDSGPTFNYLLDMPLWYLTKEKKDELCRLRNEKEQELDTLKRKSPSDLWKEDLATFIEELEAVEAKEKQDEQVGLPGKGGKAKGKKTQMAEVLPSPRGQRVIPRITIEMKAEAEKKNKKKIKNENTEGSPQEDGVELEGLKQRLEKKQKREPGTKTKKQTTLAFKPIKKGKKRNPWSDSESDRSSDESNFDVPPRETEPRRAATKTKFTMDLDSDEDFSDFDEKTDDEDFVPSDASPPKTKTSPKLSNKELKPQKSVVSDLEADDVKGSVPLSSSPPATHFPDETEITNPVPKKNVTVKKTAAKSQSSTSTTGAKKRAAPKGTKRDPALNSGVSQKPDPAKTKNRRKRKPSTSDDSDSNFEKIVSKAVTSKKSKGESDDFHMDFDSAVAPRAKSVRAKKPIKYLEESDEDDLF

[5] = Tmax in CD1 mouse at 10 mg/kg, po by LC-MS/MS analysis; format: ADME, organism-based; details: in vivo
[6] = AUCt in CD1 mouse at 10 mg/kg, po by LC-MS/MS analysis; format: ADME, organism-based; details: in vivo
Staphylococcus aureus [7] = experiment: Antibacterial activity against methicillin-sensitive Staphylococcus aureus infected in Kunming mouse treated with 50 mg/kg cytochrome P450 inhibitor ABT dosed subcutaneously at 0.5 and 4.0 hrs postinfection followed by and measured at 7 to 14 days post treatment by Bliss method; format: functional; details: sc
[8] = test system: Staphylococcus epidermidis; experiment: Antibacterial activity against methicillin-resistant Staphylococcus epidermidis after 18 to 20 hrs by CLSI-protocol based broth microdilution method; format: functional
[9] = Solubility of the compound in water incubated at 37 degC for 24 hrs by LC/MS/MS analysis; format: physicochemical
[10] = Cmax in CD1 mouse at 10 mg/kg, po by LC-MS/MS analysis; format: ADME, organism-based; set-up: dose 10 mg/kg, route oral; details: in vivo
Staphylococcus aureus [11] = experiment: Antibacterial activity against methicillin-sensitive Staphylococcus aureus after 18 to 20 hrs by CLSI-protocol based broth microdilution method; format: functional; details: Staphylococcus aureus; read-out: MIC
Streptococcus pneumoniae = experiment: Antibacterial activity against penicillin-resistant Streptococcus pneumoniae after 18 to 20 hrs by CLSI-protocol based broth microdilution method; format: functional
Streptococcus pyogenes = experiment: Antibacterial activity against Streptococcus pyogenes after 18 to 20 hrs by CLSI-protocol based broth microdilution method; format: functional; details: Streptococcus pyogenes; read-out: MIC
[12] = Solubility of the compound in pH 6.8 intestinal juice incubated at 37 degC for 24 hrs by LC/MS/MS analysis; format: physicochemical
[13] = Solubility of the compound in pH 1.2 gastric juice incubated at 37 degC for 24 hrs by LC/MS/MS analysis; format: physicochemical
[14] = MRT in CD1 mouse at 10 mg/kg, po by LC-MS/MS analysis; format: ADME, organism-based; details: in vivo
[15] = test system: Staphylococcus epidermidis; experiment: Antibacterial activity against methicillin-sensitive Staphylococcus epidermidis after 18 to 20 hrs by CLSI-protocol based broth microdilution method; format: functional

C[C@@H]1CN2c3c(cc4c(N5CCOC5=O)noc4c3F)CC3(C(=O)NC(=O)NC3=O)[C@H]2[C@H](C)O1 showed an MIC (Staphylococcus aureus [1]) of 0.03 to 1 µg/mL (≈ 0.0634 to 2.11 µM), a half-life [2] of 205 min and an ED50 (Staphylococcus aureus [3]) of 11.5 mg/kg. The pIC50 (DNA gyrase) was 4.61, the MIC50 (Neisseria gonorrhoeae) was 0.03 µg/mL (≈ 0.0634 µM) and the MIC90 (Neisseria gonorrhoeae) was 0.125 µg/mL (≈ 0.264 µM). The pIC50 [4] was less than 3.70, the Tmax [5] was 34.8 min and the AUC(0-t) [6] was 748 ng·h/mL. It also gave an ED50 (Staphylococcus aureus [7]) of 11 mg/kg, an MIC [8] of 0.03 to 0.25 µg/mL (≈ 0.0634 to 0.528 µM) and a solubility at 24 h [9] of 128 µM (≈ 60.6 µg/mL). For the same compound, the Cmax [10] was 183 ng/mL, the MIC (Staphylococcus aureus [11]) was 0.125 to 0.25 µg/mL (≈ 0.264 to 0.528 µM) and the MIC (Streptococcus pneumoniae) was 0.25 to 1 µg/mL (≈ 0.528 to 2.11 µM). For the same compound, the MIC (Streptococcus pyogenes) was 0.25 to 0.5 µg/mL (≈ 0.528 to 1.06 µM), the solubility at 24 h [12] was 139 µM (≈ 65.8 µg/mL) and the solubility at 24 h [13] was 121 µM (≈ 57.3 µg/mL). For the same compound, the MRT [14] was 7.06 h and the MIC [15] was 0.06 to 0.25 µg/mL (≈ 0.127 to 0.528 µM).
